From US11905265B1, “3,4-dimethoxy-n′-(2-(5-phenyl-1,3,4-oxadiazol-2ylthio)acetoxy)benzimidamide as an antimicrobial compound” (KING FAISAL UNIVERSITY, priority 2023, dated 2024)

Tests used:
Type in all cases: cell-based
Bacillus cereus = assay: Agar plate disc-diffusion, antibacterial activity (inhibition zone); conditions: nutrient agar, 37° C., 48 hours
Protocol: (§1) The agar plate disc-diffusion method was applied. […] The discs were then placed onto the surface of agar plates (nutrient agar for bacteria and Sabouraud's dextrose agar for fungi) seeded with the test organism. Each plate contained 15 mL of the agar medium, previously seeded with 0.2 mL of the broth culture of each organism pregrown for 18 hours. The plates were incubated at 37° C. for 48 hours, and 72 hours for fungi. The inhibition zones were measured in milimeters. Discs impregnated with DMSO were used as a control, and its inhibition zone was subtracted from the tested compound actual inhibition zone.
(§2) The antibacterial activity was screened against gram positive bacteria namely Bacillus cereus and Staphylococcus aureus and gram-negative bacterial strains namely Pseudomonas aeruginosa and Escherichia coli, while the antifungal activity was screened against Aspergillus flavus and Chrysosporium keratinophilum as shown in Table 1 and 2.

Escherichia coli = assay: as above; conditions: nutrient agar, 37° C., 48 hours
Protocol: as §1, §2

Pseudomonas aeruginosa = assay: as above; conditions: nutrient agar, 37° C., 48 hours
Protocol: as §1, §2

Staphylococcus aureus = assay: as above; conditions: nutrient agar, 37° C., 48 hours
Protocol: as §1, §2

Aspergillus flavus = assay: Agar plate disc-diffusion, antifungal activity (inhibition zone); conditions: Sabouraud's dextrose agar, 72 hours
Protocol: as §1, §2

[1] = tested on: Chrysosporium keratinophilum; assay: as above; conditions: Sabouraud's dextrose agar, 72 hours
Protocol: as §1, §2

[2] = A = concentration of comp. = 10,000 uL
[3] = B = concentration of comp. = 30,000 uL
[4] = C = concentration of comp. = 50,000 uL

SMILES | inhibition zone (Bacillus cereus; [2]) [mm] | inhibition zone (Bacillus cereus; [3]) [mm] | inhibition zone (Bacillus cereus; [4]) [mm] | inhibition zone (Escherichia coli; [2]) [mm] | inhibition zone (Escherichia coli; [3]) [mm] | inhibition zone (Escherichia coli; [4]) [mm] | inhibition zone (Pseudomonas aeruginosa; [2]) [mm] | inhibition zone (Pseudomonas aeruginosa; [3]) [mm] | inhibition zone (Pseudomonas aeruginosa; [4]) [mm] | inhibition zone (Staphylococcus aureus; [2]) [mm] | inhibition zone (Staphylococcus aureus; [3]) [mm] | inhibition zone (Staphylococcus aureus; [4]) [mm] | inhibition zone (Aspergillus flavus; [2]) [mm] | inhibition zone (Aspergillus flavus; [3]) [mm] | inhibition zone (Aspergillus flavus; [4]) [mm] | inhibition zone [1, 2] [mm] | inhibition zone [1, 3] [mm] | inhibition zone [1, 4] [mm]
O=C(O)c1cn(C2CC2)c2cc(N3CCNCC3)c(F)cc2c1=O [Cip., ciprofloxacin] | 29 | 30 | 42 | 30 | 39 | 60 | 29 | 30 | 53 | 43 | 44 | 53 | 29 | 30 | 42 | 29 | 30 | 53
COc1ccc(/C(N)=N/OC(=O)CSc2nnc(-c3ccccc3)o2)cc1OC [Compound 3, 3,4-dimethoxy-N′-(2-(5-phenyl-1,3,4-oxadiazol-2-ylthio)acetoxy)benzimidamide] | 25 | 29 | 41 | 26 | 35 | 50 | 20 | 24 | 37 | 24 | 27 | 43 | 23 | 27 | 40 | 24 | 26 | 40
